Earlier results in publication PMC12444507 (ACS Omega, 2025).

Tested on: nirmatrelvir-resistant E166 V-carrying SARS-CoV-2^E166V
Conditions: cited from earlier work

## CC(C)(C)[C@H](NC(=O)C(F)(F)F)C(=O)N1C[C@H]2[C@@H]([C@H]1C(=O)N[C@@H](C[C@@H]1CCNC1=O)C(=O)c1nc3cc(F)ccc3s1)C2(C)C [TKB272 (8)]
  antiviral activity against SARS-CoV-2^E166V: substantial antiviral activity
